Values after ≈ are worked out from the molar mass of the structure shown.
These molecules were tested on P. vulgaris 49 (assay: In vitro antibacterial activity, two-fold agar-plate dilution method (MIC)). Conditions: Proteus vulgaris, HI-agar, 10^6 viable cells per ml, 37° C. for 20 hours, read-out: MIC (minimal inhibitory concentration).
Type: cell-based
Experimental: Now in order to show the utility of the object compounds [I], the test data on MIC (minimal inhibitory concentration) of representative compounds [I] of this invention are shown in the following.
In vitro antibacterial activity was determined by the two-fold agar-plate dilution method as described below.
One loopful of an overnight culture of each test strain in Trypticase-soy broth (10^6 viable cells per ml) was streaked on heart infusion agar (HI-agar) containing graded concentrations of representative test compound, and the minimal inhibitory concentration (MIC) was expressed in terms of μg/ml after incubation at 37° C. for 20 hours.

| MIC | SMILES |
| --- | --- |
| 0.2 µg/mL (≈ 0.354 µM) | Cn1c(NC=O)cc[n+]1CC1=C(C(=O)[O-])N2C(=O)C(NC(=O)C(=NOCC(=O)O)c3nsc(N)n3)C2SC1 (stereo not drawn) [Compound B, 7β-[2-(5-Amino-1,2,4-thiadiazol-3-yl)-2-carboxymethoxyiminoacetamide]-3-(3-formamido-2-methyl-1-pyrazolio)methyl-3-cephem-4-carboxylate (syn isomer)] |
| 0.2 µg/mL (≈ 0.372 µM) | Cn1c(N)cc[n+]1CC1=C(C(=O)[O-])N2C(=O)C(NC(=O)C(=NOCC(=O)O)c3nsc(N)n3)C2SC1 (stereo not drawn) [Compound A, 7β-[2-(5-Amino-1,2,4-thiadiazol-3-yl)-2-carboxymethoxyiminoacetamido]-3-(3-amino-2-methyl-1-pyrazolio)methyl-3-cephem-4-carboxylate (syn isomer)] |
| 0.1 µg/mL (≈ 0.177 µM) | Cn1c(N)cc[n+]1CC1=C(C(=O)[O-])N2C(=O)C(NC(=O)C(=NOC(C)(C)C(=O)O)c3nsc(N)n3)C2SC1 (stereo not drawn) [Compound C, 7β-[2-(5-Amino-1,2,4-thiadiazol-3-yl)-2-(1-carboxyl-1-methylethoxyimino)acetamido]-3-(3-amino-2-methyl-1-pyrazolio)methyl-3-cephem-4-carboxylate(syn isomer)] |
